These results are taken from patent US20030004172A1, “Fused pyrimidinone matrix metalloproteinase inhibitors” (priority 2001, published 2003).

This experiment has as its target MMP-13CD (catalytic domain of collagenase-3) (Homo sapiens, UniProt P45452). The experiment is described as follows: Thiopeptolide substrate hydrolysis inhibition assay, MMP-13CD. It counts as biochemical. The settings on record: Table I; thiopeptolide substrate, HEPES pH 7.0, 22° C.; read-out: MMP-13CD IC50. From the text: Thiopeptolide substrates show virtually no decomposition or hydrolysis at or below neutral pH in the absence of a matrix metalloproteinase enzyme.

For orientation: IC50 means the concentration that gives 50% inhibition. In the case of `Cn1c(=O)n(Cc2ccccc2)c(=O)c2cc(C(=O)OCc3ccc(Cl)cc3)sc21` [Example 185, 3-Benzyl-1-methyl-2,4-dioxo-1,2,3,4-tetrahydro-thieno[2,3-d]pyrimidine-6-carboxylic acid 4-chloro-benzyl ester], the 50% inhibitory concentration (IC50) was found to be 0.014 µM.

As to `CCN1CCCC(OC(=O)c2cc3c(=O)n(Cc4ccccc4)c(=O)n(C)c3s2)C1` (centres unmarked) [Example 186, 3-Benzyl-1-methyl-2,4-dioxo-1.2.3.4-tetrahydro-thieno[2,3-d]pyrimidine-6-carboxylic acid 1-ethyl-piperidin-3-yl ester], the concentration for half-maximal inhibition (IC50) was 4.5 µM. Then `Cn1c(=O)n(Cc2ccccc2)c(=O)c2cc(C(=O)OCc3ccc(OCc4ccccc4)cc3)sc21` [Example 187, 3-Benzyl-1-methyl-2,4-dioxo-1,2,3,4-tetrahydro-thieno[2,3-d]pyrimidine-6-carboxylic acid 4-benzyloxy-benzyl ester], with greater than 100 µM. Turning to `CC(C)COC(=O)c1cc2c(=O)n(Cc3ccccc3)c(=O)n(C)c2s1` [Example 188, 3-Benzyl-1-methyl-2,4-dioxo-1,2,3,4-tetrahydro-thieno[2,3-d]pyrimidine-6-carboxylic acid isobutyl ester], the IC50 amounted to 19 µM.

As to `COc1ccc(CCCOC(=O)c2cc3c(=O)n(Cc4ccccc4)c(=O)n(C)c3s2)cc1` [Example 189, 3-Benzyl-1-methyl-2,4-dioxo-1,2,3,4-tetrahydro-thieno[2,3-d]pyrimidine-6-carboxylic acid 3-(4-methoxy-phenyl)-propyl ester], the IC50 was 4.9 µM.

Take `Cn1c(=O)n(Cc2ccccc2)c(=O)c2cc(C(=O)OCc3c(F)cccc3Cl)sc21` [Example 190, 3-Benzyl-1-methyl-2,4-dioxo-1,2,3,4-tetrahydro-thieno[2,3-d]pyrimidine-6-carboxylic acid 2-chloro-6-fluoro-benzyl ester]: the IC50 was greater than 100 µM. Then `Cn1c(=O)n(Cc2ccccc2)c(=O)c2cc(C(=O)OC3CCOC3)sc21` (centres unmarked) [Example 191, 3-Benzyl-1-methyl-2,4-dioxo-1,2,3,4-tetrahydro-thieno[2,3-d]pyrimidine-6-carboxylic acid tetrahydro-furan-3-yl ester], with 2.3 µM; and `COc1cccc(COC(=O)c2cc3c(=O)n(Cc4ccccc4)c(=O)n(C)c3s2)c1` [Example 192, 3-Benzyl-1-methyl-2,4-dioxo-1,2,3,4-tetrahydro-thieno[2,3-d]pyrimidine-6-carboxylic acid 3-methoxy-benzyl ester], with 0.0034 µM. Then `COc1cccc(COC(=O)c2cc3c(=O)n(Cc4ccccc4)c(=O)n(C)c3s2)c1` [Example 193, 3-Benzyl-1-methyl-2,4-dioxo-1,2,3,4-tetrahydro-thieno[2,3-d]pyrimidine-6-carboxylic acid 3-methoxy-benzyl ester], with 0.0034 µM; and `Cn1c(=O)n(Cc2ccccc2)c(=O)c2cc(C(=O)OCCCc3ccccn3)sc21` [Example 194, 3-Benzyl-1-methyl-2,4-dioxo-1,2,3,4-tetrahydro-thieno[2,3-d]pyrimidine-6-carboxylic acid 3-pyridin-2-yl-propyl ester], with 88 µM; and `Cn1c(=O)n(Cc2ccccc2)c(=O)c2cc(C(=O)OCCC3CCCCN3)sc21` (centres unmarked) [Example 195, 3-Benzyl-1-methyl-2,4-dioxo-1,2,3,4-tetrahydro-thieno[2,3-d]pyrimidine-6-carboxylic acid 2-piperidin-2-yl-ethyl ester], with greater than 100 µM. As for `COc1ccc(Br)cc1COC(=O)c1cc2c(=O)n(Cc3ccccc3)c(=O)n(C)c2s1` [Example 196, 3-Benzyl-1-methyl-2,4-dioxo-1,2,3,4-tetrahydro-thieno[2,3-d]pyrimidine-6-carboxylic acid 5-bromo-2-methoxy-benzyl ester], the IC50 amounted to 30 µM.

Regarding `Cn1c(=O)n(Cc2ccccc2)c(=O)c2cc(C(=O)OCC3CCCCCC3)sc21` [Example 197, 3-Benzyl-1-methyl-2,4-dioxo-1,2,3,4-tetrahydro-thieno[2,3-d]pyrimidine-6-carboxylic acid cycloheptylmethyl ester], the IC50 was greater than 100 µM. For `Cn1c(=O)n(Cc2ccccc2)c(=O)c2cc(C(=O)OC3CCCc4ccccc43)sc21` (centres unmarked) [Example 198, 3-Benzyl-1-methyl-2,4-dioxo-1,2,3,4-tetrahydro-thieno[2,3-d]pyrimidine-6-carboxylic acid 1,2,3,4-tetrahydro-naphthalen-1-yl ester] the value was greater than 100 µM; for `Cn1c(=O)n(Cc2ccccc2)c(=O)c2cc(C(=O)OCC3CCCN3)sc21` (centres unmarked) [Example 199, 3-Benzyl-1-methyl-2,4-dioxo-1,2,3,4-tetrahydro-thieno[2,3-d]pyrimidine-6-carboxylic acid pyrrolidin-2-ylmethyl ester], 17 µM; for `Cn1c(=O)n(Cc2ccccc2)c(=O)c2cc(C(=O)OCc3cccc(Cl)c3)sc21` [Example 200, 3-Benzyl-1-methyl-2,4-dioxo-1,2,3,4-tetrahydro-thieno[2,3-d]pyrimidine-6-carboxylic acid 3-chloro-benzyl ester], 0.067 µM. Then `Cn1c(=O)n(Cc2ccccc2)c(=O)c2cc(C(=O)OCc3ccc4c(c3)OCO4)sc21` [Example 201, 3-Benzyl-1-methyl-2,4-dioxo-1,2,3,4-tetrahydro-thieno[2,3-d]pyrimidine-6-carboxylic acid 1,3-benzodioxol-5-ylmethyl ester], with 0.3 µM; and `CSc1ccc(COC(=O)c2cc3c(=O)n(Cc4ccccc4)c(=O)n(C)c3s2)cc1` [Example 202, 3-Benzyl-1-methyl-2,4-dioxo-1,2,3,4-tetrahydro-thieno[2,3-d]pyrimidine-6-carboxylic acid 4-methylsulfanyl-benzyl ester], with 0.36 µM; and `CSc1ccc(COC(=O)c2cc3c(=O)n(Cc4ccccc4)c(=O)n(C)c3s2)cc1` [Example 203, 3-Benzyl-1-methyl-2,4-dioxo-1,2,3,4-tetrahydro-thieno[2,3-d]pyrimidine-6-carboxylic acid 4-methylsulfanyl-benzyl ester], with 0.36 µM.

For `Cn1c(=O)n(Cc2ccccc2)c(=O)c2cc(C(=O)OCc3ccc(Cl)c(Cl)c3)sc21` [Example 204, 3-Benzyl-1-methyl-2,4-dioxo-1,2,3,4-tetrahydro-thieno[2,3-d]pyrimidine-6-carboxylic acid 3,4-dichloro-benzyl ester], the IC50 amounted to 0.072 µM. For `Cn1c(=O)n(Cc2ccccc2)c(=O)c2cc(C(=O)OCCC(c3ccccc3)c3ccccc3)sc21` [Example 205, 3-Benzyl-1-methyl-2,4-dioxo-1,2,3,4-tetrahydro-thieno[2,3-d]pyrimidine-6-carboxylic acid 3,3-diphenyl-propyl ester] the value was 19 µM. Then `Cn1c(=O)n(Cc2ccccc2)c(=O)c2cc(C(=O)OCCc3ccccn3)sc21` [Example 206, 3-Benzyl-1-methyl-2,4-dioxo-1,2,3,4-tetrahydro-thieno[2,3-d]pyrimidine-6-carboxylic acid 2-pyridin-2-yl-ethyl ester], with 15 µM; and `Cn1c(=O)n(Cc2ccccc2)c(=O)c2cc(C(=O)OCc3ccoc3)sc21` [Example 207, 3-Benzyl-1-methyl-2,4-dioxo-1,2,3,4-tetrahydro-thieno[2,3-d]pyrimidine-6-carboxylic acid furan-3-ylmethyl ester], with 0.2 µM.
